Assay results: PubChem BioAssay (NCI)
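Protocol summary: plate cells (96-well), add compound at 5 concentrations, incubate 48 h, interpolate endpoints linearly. TGI denotes the concentration required for complete inhibition of growth.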

What was measured:
Experiment in all cases: NCI tumour cell line growth inhibition, 48 h
BT-549 breast = test system: BT-549 breast
SN12C renal = test system: SN12C renal
LOX IMVI melanoma = test system: LOX IMVI melanoma
MDA-MB-231 breast = test system: MDA-MB-231 breast
EKVX NSCLC = test system: EKVX NSCLC
HOP-92 NSCLC = test system: HOP-92 NSCLC
IGROV1 ovarian = test system: IGROV1 ovarian
HCT-15 colon = test system: HCT-15 colon
SK-OV-3 ovarian = test system: SK-OV-3 ovarian
786-0 renal = test system: 786-0 renal
SK-MEL-2 melanoma = test system: SK-MEL-2 melanoma
UACC-62 melanoma = test system: UACC-62 melanoma
PC-3 prostate = test system: PC-3 prostate
SNB-75 CNS = test system: SNB-75 CNS
SK-MEL-28 melanoma = test system: SK-MEL-28 melanoma
SR leukemia = test system: SR leukemia
OVCAR-8 ovarian = test system: OVCAR-8 ovarian
SW-620 colon = test system: SW-620 colon
HS 578T breast = test system: HS 578T breast
T-47D breast = test system: T-47D breast

| SMILES | TGI (BT-549 breast) [µM] | TGI (SN12C renal) [µM] | TGI (LOX IMVI melanoma) [µM] | TGI (MDA-MB-231 breast) [µM] | TGI (EKVX NSCLC) [µM] | TGI (HOP-92 NSCLC) [µM] | TGI (IGROV1 ovarian) [µM] | TGI (HCT-15 colon) [µM] | TGI (SK-OV-3 ovarian) [µM] | TGI (786-0 renal) [µM] | TGI (SK-MEL-2 melanoma) [µM] | TGI (UACC-62 melanoma) [µM] | TGI (PC-3 prostate) [µM] | TGI (SNB-75 CNS) [µM] | TGI (SK-MEL-28 melanoma) [µM] | TGI (SR leukemia) [µM] | TGI (OVCAR-8 ovarian) [µM] | TGI (SW-620 colon) [µM] | TGI (HS 578T breast) [µM] | TGI (T-47D breast) [µM] |
| --- | --- | --- | --- | --- | --- | --- | --- | --- | --- | --- | --- | --- | --- | --- | --- | --- | --- | --- | --- | --- |
| CSCCC(NC(=O)Cc1ccc(C(=O)c2ccccc2)cc1)C(=O)N1CCN(CCCCN2c3ccccc3Sc3cc(N=[N+]=[N-])ccc32)CC1 (stereo not drawn) | > 100 | > 100 | > 100 | > 100 | > 100 | > 100 | > 100 | > 100 | > 100 | > 100 | > 100 | > 100 | > 100 |  |  |  |  |  |  |  |
| CC(C)COC(=O)c1ccc(N=Cc2ccc(C=Nc3ccc(C(=O)OCC(C)C)cc3)cc2)cc1 |  | > 100 | > 100 |  |  | > 100 | > 100 | > 100 | > 100 | > 100 | > 100 | > 100 |  | > 100 | > 100 | > 100 | > 100 | > 100 |  |  |
| O=C(O)CCNc1ncc2c(n1)-c1ccccc1OC2 |  | > 100 | > 100 | > 100 | > 100 | > 100 | > 100 | > 100 | > 100 | > 100 | > 100 | > 100 | > 100 | > 100 | > 100 | > 100 | > 100 | > 100 | > 100 |  |
| COc1ccc(N=C(CS(=O)c2ccc(C)cc2)C(F)(F)F)cc1 (stereo not drawn) | > 100 | > 100 | > 100 | > 100 | > 100 | > 100 | > 100 | > 100 | > 100 | > 100 | > 100 | > 100 | > 100 | > 100 | > 100 | > 100 | > 100 | > 100 |  | > 100 |
| Cc1cc(O)c2c(c1)C(C1OC(CO)C(O)C(O)C1O)c1cc(O)cc(O)c1C2=O (stereo not drawn) | > 100 | > 100 |  | > 100 | > 100 | > 100 | > 100 | > 100 | > 100 | > 100 |  | > 100 | > 100 | > 100 | > 100 | > 100 | > 100 | > 100 |  | > 100 |
| CCOc1ccc(N2C(=O)NC3(c4ccccc4)N(C)C(=O)N(C)C23c2ccccc2)cc1 (stereo not drawn) | > 100 | > 100 | > 100 | > 100 | > 100 | > 100 | > 100 |  | > 100 | > 100 | > 100 | > 100 | > 100 | 63.5 | > 100 | > 100 | > 100 | > 100 |  |  |
| O=S1(=O)OCCOS(=O)(=O)C1(Cl)Cl |  | > 100 | > 100 |  | > 100 | > 100 | > 100 |  | > 100 | > 100 | > 100 | > 100 |  | > 100 | > 100 | > 100 | > 100 | > 100 |  |  |
| CCOC(=O)NC(Nc1ccc(S(=O)(=O)Nc2ccc(OC)nn2)cc1)(C(F)(F)F)C(F)(F)F |  | 83.9 | 82 | 38.1 | > 100 | 73.2 | 54 | > 100 | > 100 | 59 |  | > 100 | > 100 | > 100 | 55.6 | 55.8 | > 100 | > 100 | > 100 | > 100 |
| O=C1C[C@@H]2[C@@H](CCC23CCCC3)N1 |  | > 100 | > 100 |  | > 100 |  | > 100 | > 100 | > 100 | > 100 | > 100 | > 100 |  | > 100 | > 100 |  | > 100 | > 100 |  |  |
| Fc1ccc(Oc2nc3ccccc3nc2-c2ccccc2)cc1 | > 100 | > 100 | > 100 | > 100 | > 100 | > 100 | > 100 | > 100 | > 100 | > 100 | > 100 | > 100 | > 100 |  | > 100 | > 100 |  | > 100 | > 100 |  |
| COC(=O)CNC(=O)CNC(=O)CSc1nnc(COc2ccc(Cl)cc2)n1-c1ccccc1 | 58.8 | > 100 | 57.7 | 39.2 | > 100 | 49.5 | 39.4 | > 100 |  | > 100 | 43.9 | 33.5 | > 100 | 60.2 | 56.3 | 86.6 | > 100 | > 100 | 78.3 |  |
| O=C1C(Cl)=C(N2CCN(CCOCCO)CC2)C(=O)c2ccccc21 |  | 28.8 | 17.7 | 17.9 | 32.3 | 2.89 | 28.6 | 24.4 | 28.9 | 24 | 23 | 13.7 | 31.9 | 27.7 | 32.1 | 8.51 | 28.2 | 3.09 | 39.2 | 3.34 |
| CC(NC(=O)C(N)CC(=O)O)C(=O)OC12CC3CC(CC(C3)C1)C2 (stereo not drawn) |  | > 100 | > 100 | > 100 | > 100 | > 100 | > 100 | > 100 | > 100 | > 100 | > 100 | > 100 | > 100 | > 100 | > 100 | > 100 | > 100 | > 100 | > 100 |  |
| CCC(=O)N(c1ccccc1)C(C)CN1CCC(O)(c2cccc(C(F)(F)F)c2)CC1 (stereo not drawn) |  | > 100 | 35 | 44.7 | > 100 | 61.6 | > 100 | 90.9 | > 100 | 40.1 | 43 | 49.1 | 46 | 76.3 | 61.2 |  | > 100 | > 100 | 99.7 | 98.4 |
| CC(=O)NNc1nc(C)c(C(/C=C/c2ccc(Cl)cc2)=N\N=C(N)N)s1 |  | > 100 | > 100 |  |  | > 100 | > 100 | > 100 | > 100 | > 100 |  | > 100 |  | > 100 | > 100 | > 100 | > 100 | > 100 |  |  |
| CCOC(CN(C)C(=O)Nc1ccc(Cl)c(Cl)c1)OCC |  | > 10 | > 10 | > 10 | > 10 | > 10 | > 10 | > 10 | > 10 | > 10 | > 10 | > 10 | > 10 | > 10 | > 10 | > 10 | > 10 | > 10 | > 10 | > 10 |
| O=C1N=CN=C2C=CC(Cl)=C(I)C12 (stereo not drawn) |  | > 100 | > 100 |  | > 100 |  | > 100 |  | > 100 | > 100 | > 100 | > 100 |  |  | > 100 | > 100 | > 100 | > 100 |  |  |
| O=C(CSc1nnc(Cc2ccccc2)o1)Nc1ccc(Cl)cc1[N+](=O)[O-] |  | 31.4 | 26.3 |  | 40.1 |  |  | 32.2 | > 100 | 31 | 29.8 | 30.5 |  | 39.5 | 29 | > 100 | > 100 | 53.8 |  |  |
| CN1C(=S)CSc2ccccc21 |  | > 100 | > 100 |  | > 100 | > 100 | > 100 | > 100 | > 100 | > 100 | > 100 |  |  | > 100 | > 100 | > 100 | > 100 | > 100 |  |  |
| COC(=O)C1CC(c2ccc(Cl)cc2)=NO1 (stereo not drawn) |  | > 100 |  |  | > 100 | > 100 | > 100 | > 100 | > 100 | > 100 | > 100 | > 100 |  | > 100 | > 100 | > 100 | > 100 | > 100 |  |  |
| Cc1cc(N(CCC#N)CCC#N)ccc1/C=C1N=C(/C=C/c2ccccc2)N(c2ccc(S(N)(=O)=O)cc2)C\1=O |  | > 100 | > 100 |  |  | > 100 | > 100 | > 100 | > 100 | > 100 | > 100 | > 100 |  | > 100 | > 100 | > 100 | > 100 | > 100 |  |  |
| CC(C)(C)C(O)CC(O)(C(F)(F)F)C(F)(F)F (stereo not drawn) |  | > 100 | > 100 | > 100 | > 100 | > 100 | > 100 | > 100 | > 100 | > 100 | > 100 | > 100 | > 100 | > 100 | > 100 | > 100 | > 100 | > 100 | > 100 | > 100 |
| O=c1oc2ccc3ccccc3c2cc1-c1nc(-c2ccc([N+](=O)[O-])cc2)n[nH]1 | 79.8 |  | > 100 |  | > 100 |  | 51.8 | > 100 | 52.7 | > 100 | > 100 | > 100 | > 100 |  | > 100 | > 100 | 94.6 | > 100 | 45.6 |  |
| C=CCOC1CC(n2cnc3c(N)ncnc32)OC1CO (stereo not drawn) |  |  |  |  |  | > 100 | > 100 | > 100 |  | > 100 | > 100 | > 100 |  | > 100 | > 100 | > 100 | > 100 | > 100 |  |  |
| CC1OC(OC2C(OC(=O)[C@]34CCC(C)(C)CC3C3=CCC5[C@@]6(C)C[C@H](O)[C@H](OC7OC(COC8OC(CO)C(O)C(O)C8O)C(O)C(O)C7O)[C@@](C)(C(=O)O)C6CC[C@@]5(C)C3(C)CC4)OCC(O)C2O)C(O)C(O)C1OC1OCC(O)C(O)C1O (stereo partly drawn) |  | > 100 | > 100 |  | > 100 | > 100 | > 100 | > 100 | > 100 | > 100 | > 100 | > 100 |  | > 100 | > 100 |  | > 100 | > 100 |  |  |
| COC(=O)CN=C1NC(=S)N(Cc2ccc(OC)cc2)C12CCCC2 | > 100 | > 100 |  | > 100 | > 100 | > 100 |  | > 100 | > 100 | > 100 | > 100 | > 100 | > 100 | > 100 | > 100 | > 100 | > 100 | > 100 |  | > 100 |
| CCCCC(O)(c1ccccc1)C(O)(c1ccccc1)c1c(F)c(F)c(F)c(F)c1F (stereo not drawn) | > 100 | 31.1 |  | 34.9 | 59.6 | 44.8 | > 100 | 30.1 | > 100 | 39.4 |  | 39.2 | 46.8 | > 100 | 86.1 | 76.7 | 55.5 | 61.8 |  | > 100 |
| Cc1ccc(S(=O)(=O)NN=C2C(C)(C)CC2(C)C)cc1 |  | > 100 | > 100 | > 100 | > 100 | > 100 | > 100 | > 100 | > 100 | > 100 | > 100 | > 100 | > 100 | > 100 | > 100 |  | > 100 | > 100 | > 100 | > 100 |
